# Data taken from the supplement of paper PMC10307832.
# Key:
# Assay in all cases: relative viability (nuclei count vs DMSO), 5 days (fraction); higher = more cells survive
# PC-3 [JPC-3] = tested on: PC-3 [JPC-3]
# How it was run: (§1)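 Lung cancer cell lines in 1536-well plates got either a single drug or a fixed anchor-drug dose together with five library-drug doses (not always all listed) in √10 steps, by pin tool, on the day after seeding. Nuclei were counted after 5 days, and relative viability is the treated-to-vehicle ratio of nuclei counts. Values are medians of duplicate plates.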
# ChaGo-K-1 = tested on: ChaGo-K-1
# How it was run: as §1
# NCI-H2342 = tested on: NCI-H2342
# How it was run: as §1
# NCI-H661 = tested on: NCI-H661
# How it was run: as §1
# NCI-H1975 = tested on: NCI-H1975
# How it was run: as §1
# LXF-289 = tested on: LXF-289
# How it was run: as §1
# LK-2 = tested on: LK-2
# How it was run: as §1
# NCI-H2087 = tested on: NCI-H2087
# How it was run: as §1
# NCI-H1944 = tested on: NCI-H1944
# How it was run: as §1
# NCI-H358 = tested on: NCI-H358
# How it was run: as §1
# NCI-H838 = tested on: NCI-H838
# How it was run: as §1
# BEN = tested on: BEN
# How it was run: as §1
# LC-2-ad = tested on: LC-2-ad
# How it was run: as §1
# LU99A = tested on: LU99A
# How it was run: as §1
# SK-MES-1 = tested on: SK-MES-1
# How it was run: as §1
# NCI-H596 = tested on: NCI-H596
# How it was run: as §1
# LCLC-97TM1 = tested on: LCLC-97TM1
# How it was run: as §1
# NCI-H1666 = tested on: NCI-H1666
# How it was run: as §1
# NCI-H650 = tested on: NCI-H650
# How it was run: as §1
# HCC-78 = tested on: HCC-78
# How it was run: as §1
# NCI-H1355 = tested on: NCI-H1355
# How it was run: as §1
# NCI-H1651 = tested on: NCI-H1651
# How it was run: as §1
structure (smiles),measurement,setting,value
O=c1cc(-c2cccc3c2Sc2ccccc2S3)oc(N2CCOCC2)c1 + Cc1nc(Nc2ncc(C(=O)Nc3c(C)cccc3Cl)s2)cc(N2CCN(CCO)CC2)n1 [Dasatinib] (partner 0.075 µM),relative viability,PC-3 [JPC-3]; first compound 0.08 µM,1
same,relative viability,PC-3 [JPC-3]; first compound 0.253 µM,0.949
same,relative viability,PC-3 [JPC-3]; first compound 0.8 µM,1.07
same,relative viability,PC-3 [JPC-3]; first compound 2.53 µM,0.828
same,relative viability,PC-3 [JPC-3]; first compound 8 µM,1.05
same,relative viability,ChaGo-K-1; first compound 0.08 µM,0.499
same,relative viability,ChaGo-K-1; first compound 0.253 µM,0.568
same,relative viability,ChaGo-K-1; first compound 0.8 µM,0.585
same,relative viability,ChaGo-K-1; first compound 2.53 µM,0.454
same,relative viability,ChaGo-K-1; first compound 8 µM,0.674
same,relative viability,NCI-H2342; first compound 0.08 µM,0.312
same,relative viability,NCI-H2342; first compound 0.253 µM,0.309
same,relative viability,NCI-H2342; first compound 0.8 µM,0.304
same,relative viability,NCI-H2342; first compound 2.53 µM,0.262
same,relative viability,NCI-H2342; first compound 8 µM,0.336
same,relative viability,NCI-H661; first compound 0.08 µM,0.779
same,relative viability,NCI-H661; first compound 0.253 µM,0.938
same,relative viability,NCI-H661; first compound 0.8 µM,0.761
same,relative viability,NCI-H661; first compound 2.53 µM,0.729
same,relative viability,NCI-H661; first compound 8 µM,0.874
same,relative viability,NCI-H1975; first compound 0.08 µM,0.355
same,relative viability,NCI-H1975; first compound 0.253 µM,0.35
same,relative viability,NCI-H1975; first compound 0.8 µM,0.219
same,relative viability,NCI-H1975; first compound 2.53 µM,0.239
same,relative viability,NCI-H1975; first compound 8 µM,0.326
same,relative viability,LXF-289; first compound 0.08 µM,0.219
same,relative viability,LXF-289; first compound 0.253 µM,0.21
same,relative viability,LXF-289; first compound 0.8 µM,0.226
same,relative viability,LXF-289; first compound 2.53 µM,0.239
same,relative viability,LXF-289; first compound 8 µM,0.224
same,relative viability,LK-2; first compound 0.08 µM,0.306
same,relative viability,LK-2; first compound 0.253 µM,0.252
same,relative viability,LK-2; first compound 0.8 µM,0.267
same,relative viability,LK-2; first compound 2.53 µM,0.145
same,relative viability,LK-2; first compound 8 µM,0.263
same,relative viability,NCI-H2087; first compound 0.08 µM,0.787
same,relative viability,NCI-H2087; first compound 0.253 µM,0.936
same,relative viability,NCI-H2087; first compound 0.8 µM,0.943
same,relative viability,NCI-H2087; first compound 2.53 µM,0.919
same,relative viability,NCI-H2087; first compound 8 µM,0.699
same,relative viability,NCI-H1944; first compound 0.08 µM,0.21
same,relative viability,NCI-H1944; first compound 0.253 µM,0.223
same,relative viability,NCI-H1944; first compound 0.8 µM,0.207
same,relative viability,NCI-H1944; first compound 2.53 µM,0.176
same,relative viability,NCI-H1944; first compound 8 µM,0.24
same,relative viability,NCI-H358; first compound 0.08 µM,0.145
same,relative viability,NCI-H358; first compound 0.253 µM,0.163
same,relative viability,NCI-H358; first compound 0.8 µM,0.148
same,relative viability,NCI-H358; first compound 2.53 µM,0.152
same,relative viability,NCI-H358; first compound 8 µM,0.189
same,relative viability,NCI-H838; first compound 0.08 µM,0.273
same,relative viability,NCI-H838; first compound 0.253 µM,0.283
same,relative viability,NCI-H838; first compound 0.8 µM,0.276
same,relative viability,NCI-H838; first compound 2.53 µM,0.278
same,relative viability,NCI-H838; first compound 8 µM,0.273
same,relative viability,BEN; first compound 0.08 µM,0.284
same,relative viability,BEN; first compound 0.253 µM,0.353
same,relative viability,BEN; first compound 0.8 µM,0.284
same,relative viability,BEN; first compound 2.53 µM,0.318
same,relative viability,BEN; first compound 8 µM,0.351
same,relative viability,LC-2-ad; first compound 0.08 µM,0.648
same,relative viability,LC-2-ad; first compound 0.253 µM,0.584
same,relative viability,LC-2-ad; first compound 0.8 µM,0.532
same,relative viability,LC-2-ad; first compound 2.53 µM,0.405
same,relative viability,LC-2-ad; first compound 8 µM,0.461
same,relative viability,LU99A; first compound 0.08 µM,0.759
same,relative viability,LU99A; first compound 0.253 µM,0.61
same,relative viability,LU99A; first compound 0.8 µM,0.587
same,relative viability,LU99A; first compound 2.53 µM,0.754
same,relative viability,LU99A; first compound 8 µM,0.631
same,relative viability,SK-MES-1; first compound 0.08 µM,0.335
same,relative viability,SK-MES-1; first compound 0.253 µM,0.256
same,relative viability,SK-MES-1; first compound 0.8 µM,0.312
same,relative viability,SK-MES-1; first compound 2.53 µM,0.317
same,relative viability,SK-MES-1; first compound 8 µM,0.289
same,relative viability,NCI-H596; first compound 0.08 µM,0.662
same,relative viability,NCI-H596; first compound 0.253 µM,0.636
same,relative viability,NCI-H596; first compound 0.8 µM,0.541
same,relative viability,NCI-H596; first compound 2.53 µM,0.504
same,relative viability,NCI-H596; first compound 8 µM,0.594
same,relative viability,LCLC-97TM1; first compound 0.08 µM,0.899
same,relative viability,LCLC-97TM1; first compound 0.253 µM,0.863
same,relative viability,LCLC-97TM1; first compound 0.8 µM,0.956
same,relative viability,LCLC-97TM1; first compound 2.53 µM,0.749
same,relative viability,LCLC-97TM1; first compound 8 µM,0.757
same,relative viability,NCI-H1666; first compound 0.08 µM,0.787
same,relative viability,NCI-H1666; first compound 0.253 µM,0.781
same,relative viability,NCI-H1666; first compound 0.8 µM,0.851
same,relative viability,NCI-H1666; first compound 2.53 µM,0.768
same,relative viability,NCI-H1666; first compound 8 µM,0.789
same,relative viability,NCI-H650; first compound 0.08 µM,0.4
same,relative viability,NCI-H650; first compound 0.253 µM,0.412
same,relative viability,NCI-H650; first compound 0.8 µM,0.506
same,relative viability,NCI-H650; first compound 8 µM,0.488
same,relative viability,HCC-78; first compound 0.08 µM,0.395
same,relative viability,HCC-78; first compound 0.253 µM,0.553
same,relative viability,HCC-78; first compound 0.8 µM,0.284
same,relative viability,HCC-78; first compound 2.53 µM,0.329
same,relative viability,HCC-78; first compound 8 µM,0.389
same,relative viability,NCI-H1355; first compound 0.08 µM,0.754
same,relative viability,NCI-H1355; first compound 0.253 µM,0.619
same,relative viability,NCI-H1355; first compound 0.8 µM,0.488
same,relative viability,NCI-H1355; first compound 2.53 µM,0.615
same,relative viability,NCI-H1355; first compound 8 µM,0.694
same,relative viability,NCI-H1651; first compound 0.08 µM,0.401
same,relative viability,NCI-H1651; first compound 0.253 µM,0.457
same,relative viability,NCI-H1651; first compound 0.8 µM,0.392
same,relative viability,NCI-H1651; first compound 2.53 µM,0.312
same,relative viability,NCI-H1651; first compound 8 µM,0.387
